Experimental data from ChEMBL document CHEMBL1909046, “DrugMatrix in vitro pharmacology data”.
pIC50, pKi: −log10 of the molar value.

target: Sodium-dependent noradrenaline transporter (Homo sapiens, UniProt P23975); assay: DRUGMATRIX: Norepinephrine Transporter radioligand binding (ligand: [125I] RTI-55); type: cell membranes, MDCK, Membrane; conditions: mdck; Not Active = under 50% inhibition at 10 µM
Sequence (P23975 whole entry): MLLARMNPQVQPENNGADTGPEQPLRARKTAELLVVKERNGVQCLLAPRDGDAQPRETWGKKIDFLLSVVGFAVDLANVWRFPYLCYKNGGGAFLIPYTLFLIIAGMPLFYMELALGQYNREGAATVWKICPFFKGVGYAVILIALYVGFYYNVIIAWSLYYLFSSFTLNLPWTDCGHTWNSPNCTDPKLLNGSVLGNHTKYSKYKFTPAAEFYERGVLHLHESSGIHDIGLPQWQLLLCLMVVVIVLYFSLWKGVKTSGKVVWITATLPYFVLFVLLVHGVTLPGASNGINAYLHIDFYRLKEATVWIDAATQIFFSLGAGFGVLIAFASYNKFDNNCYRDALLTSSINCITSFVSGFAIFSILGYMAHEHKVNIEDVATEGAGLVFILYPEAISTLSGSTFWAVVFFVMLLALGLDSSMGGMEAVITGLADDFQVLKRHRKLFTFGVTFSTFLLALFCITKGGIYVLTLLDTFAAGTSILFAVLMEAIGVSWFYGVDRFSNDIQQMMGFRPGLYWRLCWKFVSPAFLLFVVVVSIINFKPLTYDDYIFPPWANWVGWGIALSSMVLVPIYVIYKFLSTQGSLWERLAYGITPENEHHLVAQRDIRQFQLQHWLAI

Structure (SMILES) | IC50
C[C@]12C=CC(=O)C=C1CC[C@@H]1[C@@H]2C(=O)C[C@@]2(C)[C@H]1CC[C@]2(O)C(=O)CO [PREDNISONE] | Not Active
OCCOCCN1CCN(C2=Nc3ccccc3Sc3ccccc32)CC1 [QUETIAPINE] | Not Active
COC(=O)[C@H]1[C@H]2C[C@@H]3c4[nH]c5cc(OC)ccc5c4CCN3C[C@H]2C[C@@H](OC(=O)c2cc(OC)c(OC)c(OC)c2)[C@@H]1OC [RESERPINE] | Not Active
O=C(O)c1ccccc1O [SALICYLIC ACID] | Not Active
CC1CCC(NC(=O)N(CCCl)N=O)CC1 (stereo not given) [SEMUSTINE] | Not Active
O=C1C[C@@H]2OCC=C3CN4CC[C@]56c7ccccc7N1[C@H]5[C@H]2[C@H]3C[C@H]46 [STRYCHNINE] | Not Active
C[N+](C)(C)CCOC(=O)CCC(=O)OCC[N+](C)(C)C.[Cl-].[Cl-] [SUCCINYLCHOLINE CHLORIDE] | Not Active
Nc1ccc(S(=O)(=O)NC(=O)c2ccccc2)cc1 [SULFABENZAMIDE] | Not Active
O=c1[nH]c(=O)n(C2CCCO2)cc1F (stereo not given) [TEGAFUR] | Not Active
CC(=N)S [THIOACETAMIDE] | Not Active
CC(=O)OCC(COC(C)=O)OC(C)=O [TRIACETIN] | Not Active
CN1CCN(CCCN2c3ccccc3Sc3ccc(C(F)(F)F)cc32)CC1 [TRIFLUOPERAZINE] | Not Active

target: Glycine receptor (Rattus norvegicus, UniProt P07727+P20781+P22771+P24524); type: cell membranes, Wistar, Spinal cord, Membrane; conditions: not given; note: in other assays of this panel Not Active means under 50% inhibition at 10 µM
Sequence (P22771 whole entry): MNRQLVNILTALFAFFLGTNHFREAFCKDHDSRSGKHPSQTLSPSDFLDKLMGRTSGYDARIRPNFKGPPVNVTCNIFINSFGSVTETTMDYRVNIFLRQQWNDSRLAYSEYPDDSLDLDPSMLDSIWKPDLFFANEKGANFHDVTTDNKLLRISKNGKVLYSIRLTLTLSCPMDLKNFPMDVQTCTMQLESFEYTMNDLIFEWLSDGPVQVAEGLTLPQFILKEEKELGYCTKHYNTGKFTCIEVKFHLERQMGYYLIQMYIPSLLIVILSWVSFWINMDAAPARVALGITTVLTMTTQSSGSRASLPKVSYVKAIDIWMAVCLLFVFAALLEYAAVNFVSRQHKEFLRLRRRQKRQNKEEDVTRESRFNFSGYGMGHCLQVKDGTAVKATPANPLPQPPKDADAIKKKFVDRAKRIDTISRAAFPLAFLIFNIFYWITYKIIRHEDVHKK
Sequence (P24524 whole entry): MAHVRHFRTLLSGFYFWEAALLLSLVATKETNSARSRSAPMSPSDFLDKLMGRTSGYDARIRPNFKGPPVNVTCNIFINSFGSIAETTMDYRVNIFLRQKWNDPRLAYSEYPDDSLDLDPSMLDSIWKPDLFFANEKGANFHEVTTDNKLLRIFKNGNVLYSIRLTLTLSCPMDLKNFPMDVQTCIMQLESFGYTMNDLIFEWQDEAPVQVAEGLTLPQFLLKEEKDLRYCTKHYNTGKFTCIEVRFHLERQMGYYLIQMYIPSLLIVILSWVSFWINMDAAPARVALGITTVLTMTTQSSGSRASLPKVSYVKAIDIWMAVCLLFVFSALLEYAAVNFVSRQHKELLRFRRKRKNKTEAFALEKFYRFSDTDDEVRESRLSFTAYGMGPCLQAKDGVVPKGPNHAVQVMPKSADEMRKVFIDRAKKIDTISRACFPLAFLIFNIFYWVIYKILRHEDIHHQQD
Sequence (P07727 whole entry): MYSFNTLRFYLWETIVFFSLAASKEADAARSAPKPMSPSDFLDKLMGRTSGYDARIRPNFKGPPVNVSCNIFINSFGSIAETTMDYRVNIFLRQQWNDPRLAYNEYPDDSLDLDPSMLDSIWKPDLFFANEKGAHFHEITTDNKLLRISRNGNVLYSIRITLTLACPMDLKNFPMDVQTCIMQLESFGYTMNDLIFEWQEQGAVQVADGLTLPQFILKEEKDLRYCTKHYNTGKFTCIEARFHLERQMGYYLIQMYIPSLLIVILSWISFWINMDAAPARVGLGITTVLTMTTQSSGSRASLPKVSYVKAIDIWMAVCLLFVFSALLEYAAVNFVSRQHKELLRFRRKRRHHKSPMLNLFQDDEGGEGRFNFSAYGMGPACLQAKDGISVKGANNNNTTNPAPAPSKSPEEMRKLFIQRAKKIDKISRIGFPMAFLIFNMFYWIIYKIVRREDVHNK
Sequence (P20781 whole entry): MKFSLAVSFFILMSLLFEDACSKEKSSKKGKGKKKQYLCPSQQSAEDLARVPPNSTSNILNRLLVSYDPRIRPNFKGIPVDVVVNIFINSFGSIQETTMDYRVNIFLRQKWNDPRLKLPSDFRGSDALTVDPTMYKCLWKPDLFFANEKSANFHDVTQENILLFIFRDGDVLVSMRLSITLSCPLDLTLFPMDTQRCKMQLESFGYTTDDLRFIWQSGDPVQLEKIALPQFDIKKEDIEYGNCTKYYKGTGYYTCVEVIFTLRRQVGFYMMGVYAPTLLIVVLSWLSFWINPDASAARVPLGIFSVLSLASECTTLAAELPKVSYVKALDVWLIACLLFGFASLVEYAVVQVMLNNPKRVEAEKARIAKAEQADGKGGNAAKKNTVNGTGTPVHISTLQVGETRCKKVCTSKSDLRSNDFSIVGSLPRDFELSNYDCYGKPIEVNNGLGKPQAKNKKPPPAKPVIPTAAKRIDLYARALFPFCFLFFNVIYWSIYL

Structure (SMILES) | pIC50 | pKi
O=C1C[C@@H]2OCC=C3CN4CC[C@]56c7ccccc7N1[C@H]5[C@H]2[C@H]3C[C@H]46 [STRYCHNINE] | 8.08 | 8.33

tested on: not listed separately; assay: DRUGMATRIX: Glutamate, NMDA, Agonism radioligand binding (ligand: [3H] CGP-39653); type: cell membranes, Rattus norvegicus, Wistar, Cerebral cortex, Membrane; conditions: Not Active = under 50% inhibition at 10 µM

Structure (SMILES) | IC50 | Ki
C[C@]12C=CC(=O)C=C1CC[C@@H]1[C@@H]2C(=O)C[C@@]2(C)[C@H]1CC[C@]2(O)C(=O)CO [PREDNISONE] | Not Active | Not Active
COC(=O)[C@H]1[C@H]2C[C@@H]3c4[nH]c5cc(OC)ccc5c4CCN3C[C@H]2C[C@@H](OC(=O)c2cc(OC)c(OC)c(OC)c2)[C@@H]1OC [RESERPINE] | Not Active | Not Active
O=C(O)c1ccccc1O [SALICYLIC ACID] | Not Active | Not Active
CC1CCC(NC(=O)N(CCCl)N=O)CC1 (stereo not given) [SEMUSTINE] | Not Active | Not Active
O=C1C[C@@H]2OCC=C3CN4CC[C@]56c7ccccc7N1[C@H]5[C@H]2[C@H]3C[C@H]46 [STRYCHNINE] | Not Active | Not Active
C[N+](C)(C)CCOC(=O)CCC(=O)OCC[N+](C)(C)C.[Cl-].[Cl-] [SUCCINYLCHOLINE CHLORIDE] | Not Active | Not Active
Nc1ccc(S(=O)(=O)NC(=O)c2ccccc2)cc1 [SULFABENZAMIDE] | Not Active | Not Active
O=c1[nH]c(=O)n(C2CCCO2)cc1F (stereo not given) [TEGAFUR] | Not Active | Not Active
CC(=N)S [THIOACETAMIDE] | Not Active | Not Active
CC(=O)OCC(COC(C)=O)OC(C)=O [TRIACETIN] | Not Active | Not Active
CN1CCN(CCCN2c3ccccc3Sc3ccc(C(F)(F)F)cc32)CC1 [TRIFLUOPERAZINE] | Not Active | Not Active

tested on: not listed separately; assay: DRUGMATRIX: Phosphodiesterase PDE3 enzyme inhibition (substrate: [3H]cAMP + cAMP); type: tissue-based, Homo sapiens; conditions: platelet; Not Active = under 50% inhibition at 10 µM

Structure (SMILES) | IC50 | Ki
C[C@]12C=CC(=O)C=C1CC[C@@H]1[C@@H]2C(=O)C[C@@]2(C)[C@H]1CC[C@]2(O)C(=O)CO [PREDNISONE] | Not Active | Not Active
COC(=O)[C@H]1[C@H]2C[C@@H]3c4[nH]c5cc(OC)ccc5c4CCN3C[C@H]2C[C@@H](OC(=O)c2cc(OC)c(OC)c(OC)c2)[C@@H]1OC [RESERPINE] | Not Active | Not Active
O=C(O)c1ccccc1O [SALICYLIC ACID] | Not Active | Not Active
CC1CCC(NC(=O)N(CCCl)N=O)CC1 (stereo not given) [SEMUSTINE] | Not Active | Not Active
O=C1C[C@@H]2OCC=C3CN4CC[C@]56c7ccccc7N1[C@H]5[C@H]2[C@H]3C[C@H]46 [STRYCHNINE] | Not Active | Not Active
C[N+](C)(C)CCOC(=O)CCC(=O)OCC[N+](C)(C)C.[Cl-].[Cl-] [SUCCINYLCHOLINE CHLORIDE] | Not Active | Not Active
Nc1ccc(S(=O)(=O)NC(=O)c2ccccc2)cc1 [SULFABENZAMIDE] | Not Active | Not Active
O=c1[nH]c(=O)n(C2CCCO2)cc1F (stereo not given) [TEGAFUR] | Not Active | Not Active
CC(=N)S [THIOACETAMIDE] | Not Active | Not Active
CC(=O)OCC(COC(C)=O)OC(C)=O [TRIACETIN] | Not Active | Not Active
CN1CCN(CCCN2c3ccccc3Sc3ccc(C(F)(F)F)cc32)CC1 [TRIFLUOPERAZINE] | Not Active | Not Active

tested on: not listed separately; assay: DRUGMATRIX: Interleukin IL-1 radioligand binding (ligand: [125I] interleukin 1beta); type: cell membranes, Membrane; conditions: nih3t3; Not Active = under 50% inhibition at 10 µM

Structure (SMILES) | IC50 | Ki
C[C@]12C=CC(=O)C=C1CC[C@@H]1[C@@H]2C(=O)C[C@@]2(C)[C@H]1CC[C@]2(O)C(=O)CO [PREDNISONE] | Not Active | Not Active
COC(=O)[C@H]1[C@H]2C[C@@H]3c4[nH]c5cc(OC)ccc5c4CCN3C[C@H]2C[C@@H](OC(=O)c2cc(OC)c(OC)c(OC)c2)[C@@H]1OC [RESERPINE] | Not Active | Not Active
O=C(O)c1ccccc1O [SALICYLIC ACID] | Not Active | Not Active
CC1CCC(NC(=O)N(CCCl)N=O)CC1 (stereo not given) [SEMUSTINE] | Not Active | Not Active
O=C1C[C@@H]2OCC=C3CN4CC[C@]56c7ccccc7N1[C@H]5[C@H]2[C@H]3C[C@H]46 [STRYCHNINE] | Not Active | Not Active
C[N+](C)(C)CCOC(=O)CCC(=O)OCC[N+](C)(C)C.[Cl-].[Cl-] [SUCCINYLCHOLINE CHLORIDE] | Not Active | Not Active
Nc1ccc(S(=O)(=O)NC(=O)c2ccccc2)cc1 [SULFABENZAMIDE] | Not Active | Not Active
O=c1[nH]c(=O)n(C2CCCO2)cc1F (stereo not given) [TEGAFUR] | Not Active | Not Active
CC(=N)S [THIOACETAMIDE] | Not Active | Not Active
CC(=O)OCC(COC(C)=O)OC(C)=O [TRIACETIN] | Not Active | Not Active
CN1CCN(CCCN2c3ccccc3Sc3ccc(C(F)(F)F)cc32)CC1 [TRIFLUOPERAZINE] | Not Active | Not Active
